Source: patent EP0407583A1, “DERIVATIVES OF DICHLOR[…] ACYLAMIDO[…] AND INSECTICIDAL, FU[…] HEMATOCIDAL PREPARATIONS BASED ON THEM” (priority 1989, dated 1990)

Experiments:
Verticillium albo-atrum [1] = experiment: Inhibition of phytopathogenic fungi, field test on affected potato plants; type: in vivo; details: 5 m^2 plots of affected potato plants sprayed
Text: (§1) For field tests the plots of 5 m^2 in size with potato plants affected by Fusarium moniliforme, Venturia inaequalis, Rhyzoctonia violaceae, Botrytis cinereae, Verticillium albo-atrum, Diplodia zeae, Fusarium oxysporum, Rhoma betae, Rhyzoctonia aderholdii, Aspergillus niger, Alternaria sobani, Botrytis allii, Aspergillus fumigatis, Fusarium culmorum, Penicillium cyclopium were sprayed with the fungicide of the invention. To compare, the similar plots of the affected potato plants were aprayed with the known compositions indicated above.

Fusarium moniliforme [2] = experiment: as above; type: in vivo; details: 5 m^2 plots of affected potato plants sprayed
Text: as §1

Rhyzoctonia violaceae [3] = experiment: as above; type: in vivo; details: 5 m^2 plots of affected potato plants sprayed
Text: as §1

Botrytis cinereae [4] = experiment: as above; type: in vivo; details: 5 m^2 plots of affected potato plants sprayed
Text: as §1

Venturia inaequalis [5] = experiment: as above; type: in vivo; details: 5 m^2 plots of affected potato plants sprayed
Text: as §1

Verticillium albo-atrum [6] = experiment: Inhibition of phytopathogenic fungi growth, laboratory test on potato-dextrose agar; type: cell-based; details: active principle 0.01 % by mass in potato-dextrose agar
Protocol: (§2) A fungicidal composition based on this compound was prepared in the form of a 0.01% solution thereof in distilled water. A fungicidal action of the composition, according to the invention, was tested for inhibition of vegetative fungi growth such as Fusarium moniliforme, Ventura inaequalis, Rhyzoctonia ciolaceae, Botrytis cinereae, Verticillium albo-atrum, Diplodia zeae, Fusarium oxysporum, Rhoma betae, Rhyzoctonia aderholdii, Aspergillus niger, Alternaria sobani, Botrytis allii, Aspergillus fumigatis, Fusarium culmorum, Penicillium cyclopium affecting potato, sugar beet, cotton seeds either in laboratory or field conditions. For testing it to the Petri dishes containing potato-dextrose agar the composition of the invention was.added at the concentration of an active principle of 0.01 % by mass. The Petri dishes containing the same agar culture were inoculated with a mycelium of phytopathogenic fungi. For control dishes the phytopathogenic fungi were inoculated on agar without using the composition of the invention. A fungicidal effect of the composition, according to the invention was tested in comparison with the known fungicidal compositions based on 2,3-dichloro-1,4-naphthoquinone, zinc N,N'-ethylene-bis-dithiocarbamate and tetramethylthiuram disulphide.

Fusarium moniliforme [7] = experiment: as above; type: cell-based; details: active principle 0.01 % by mass in potato-dextrose agar
Protocol: as §2

Rhyzoctonia violaceae [8] = experiment: as above; type: cell-based; details: active principle 0.01 % by mass in potato-dextrose agar
Protocol: as §2

Botrytis cinereae [9] = experiment: as above; type: cell-based; details: active principle 0.01 % by mass in potato-dextrose agar
Protocol: as §2

Venturia inaequalis [10] = experiment: as above; type: cell-based; details: active principle 0.01 % by mass in potato-dextrose agar
Protocol: as §2

domestic flies [11] = experiment: Insecticidal activity on flies, large-scale test in living and production premises; type: in vivo; details: 0.1% aqueous solution with 5% glucose, 2-3 dishes per 20 m^2, living and production premises; 72 hours
Protocol: (§3) Based on the compound there was prepared an insecticidal composition in the form of a 0.1% solution thereof in a 5% aqueous glucose solution. The activity of the insecticidal composition, according to the invention was tested on domestic flies. To this end, into the gauze-made boxes of 10x10 cm in size (6 boxes) 6-7-day flies of both sexes were placed at the rate of 50 individuals per each box. Into 5 boxes there were placed Petri dishes with a 5% aqueous glycose solutiono An insecticidal activity of the composition, according to the invention, was tested in com- parison with an insecticidal composition based on 0,0-dimethyl(1-hydroxy-2,2,2-trichloroethyl)phosphonate. The tests were also conducted in living and production premises. For this, Petri dishes containing a 0.1% aqueous solution of the insecticide of the invention, to which a 5% glucose solution was added, were put at a rate of 2-3 dishes per 20 m^2. The activity of the composition, according to the invention, was evaluated by a direct count of dead insects in 72 hours or by using the adhesive tapes and counting the number of flies on the tape prior and after the test.

domestic flies [12] = experiment: Insecticidal activity on domestic flies, laboratory test (gauze boxes); type: in vivo; details: 0.1% solution in 5% aqueous glucose solution; 50 flies per box; count in 72 hours
Protocol: as §3

Solubility (qualitative) = details: water, alcohols, acetone

Compound | Death of flies, % tests large-scale (domestic flies [11]) [%] | Death of flies, % tests laboratory (domestic flies [12]) [%] | solubility (Solubility (qualitative)) | also measured
O=C1C(Cl)=C(Cl)C(=O)c2ccccc21 [2,3-dichloro--1,4-naphtho-quinone, 2,3-dichloro-1,4-naphthoquinone, reference compound] |  |  |  | Inhibition of growth of phytopathogenic fungi colonies, % Verticillium albo--atrum test field (Verticillium albo-atrum [1]): 52%; Inhibition of growth of phytopathogenic fungi colonies, % Fusatium monili-forme test field (Fusarium moniliforme [2]): 54%; Inhibition of growth of phytopathogenic fungi colonies, % Rhyzoctonia violaceae test field (Rhyzoctonia violaceae [3]): 32%; Inhibition of growth of phytopathogenic fungi colonies, % Botrytis cinereae test field (Botrytis cinereae [4]): 37%; Inhibition of growth of phytopathogenic fungi colonies, % Venturia inaequalis test field (Venturia inaequalis [5]): 39%; Inhibition of growth of phytopathogenic fungi colonies, % Verticillium albo--atrum test laboratory (Verticillium albo-atrum [6]): 53%; Inhibition of growth of phytopathogenic fungi colonies, % Fusatium monili-forme test laboratory (Fusarium moniliforme [7]): 55%; Inhibition of growth of phytopathogenic fungi colonies, % Rhyzoctonia violaceae test laboratory (Rhyzoctonia violaceae [8]): 34%; Inhibition of growth of phytopathogenic fungi colonies, % Botrytis cinereae test laboratory (Botrytis cinereae [9]): 38%; Inhibition of growth of phytopathogenic fungi colonies, % Venturia inaequalis test laboratory (Venturia inaequalis [10]): 40%
O=C(CCl)NP(=O)(NCc1ccccc1)NCc1ccccc1 [Example 1, chloroacetylamidophosphoric acid dibenzylamide] | 93 | 94 | soluble in water, alcohols acetone | 
Cc1ccc(C)c(NP(=O)(NC(=O)c2ccc(Cl)cc2)Nc2cc(C)ccc2C)c1 [Example 2, di-2,5-dimethylanil-ide of para-chlorobenzoylamidophosphoric acid] | 91 | 92 | soluble in water, alcohols, acetone | 
O=C(NP(=O)(Nc1cccc(Cl)c1)Nc1cccc(Cl)c1)c1ccc(Cl)cc1 [Example 3, di-meta- chloranilide pf para-chlorobenzoylamidophosphoric acid] | 86 | 87 | soluble in water, alcohols, acetone | 
O=C(NP(=O)(Nc1ccccc1)Nc1ccccc1)c1ccc(Br)cc1 [Example 4, para-bromobenzoilamidophosphoric acid dianilide] | 93 | 94 | soluble in water, alcohols, acetone | 
